Entries after “also recorded” stand apart in the source; their conditions may differ.
Legend:
TC-1 tumor cells = type: in vivo; settings: 5 mg/kg i.p. every day for 21 days
Source text: Development of Animal Model for CXCR4 Dependent Cancer Metastasis in Lungs: To establish a CXCR4 dependent lung tumor metastasis model, we first screened several cancer cell lines that are known to metastasize to lungs in mice models to determine which cancer cell lines endogenously express CXCR4 receptor. The mice cell lines screened were Lewis lung carcinoma, B16F10 melanoma, and TC-1 cervical carcinoma. Mice cell lines were screened using flow cytometry-based surface receptor staining using a fluorochrome labeled antibody to mouse CXCR4 receptor. […] The TC-1 cell line was generated by transfection of murine lung squamous epithelial cells by Human pappillomavirus (HPV) oncogenes E6, E7, and activated Ras.
5 mg/kg body weight of AMD3100, I-28, I-36, or I-38 were also injected at the same dose intra-peritoneal (i.p.) every day for 21 days starting from the day before the tumor cell injection. Mice were sacrificed and lungs were perfused and collected on day 21 post tumor challenge. Lungs were stored in formalin for 16 hrs and then transferred into 70% ethanol until the lung lobes became lucid. All five lung lobes were separated. Tumors were counted using a magnifying glass or a microscope. Tumor sizes were measured using a digital caliper. The total number of tumors counted in all five lung lobes of an individual mouse is reported as the tumor incidence. Mean tumor sizes were added together to calculate cumulative tumor size, which is reported as the tumor burden for each mouse.

[1] = Test for toxicity in mice; type: in vivo; settings: i.p. 5 mg/kg, then 20 or 40 mg/kg two days later; observed over 3 weeks
Description: Test for Toxicity: Mice were treated by intra-peritoneal injections of three of compounds I-28, I-36, and I-38 at the first dose of 5 mg/kg of body weight, followed by a second injection of either 20 mg/kg of body weight or 40 mg/kg of body weight two days later.

hCXCR4-GFP [2] = target: T1, hCXCR4-GFP (Homo sapiens, UniProt P61073); assay: Intracellular calcium mobilization assay, hCXCR4-GFP expressing 300.19 cells, CXCL12; type: cell-based; parameters: IC50 of intracellular calcium mobilization, CXCR4; other: CXCL12-mediated; other: 50 μM test compound; normalized Δ fluorescence (CXCR4, intracellular calcium mobilization); other: 50 μM test compound, 60 seconds pretreatm; settings: 50 μM test compound
Description: (§1) Intracellular Calcium Mobilization Assay Method: The intracellular calcium mobilization assay used 300.19 cells which stably expressed hCXCR4-GFP, as described previously in Pello et al. (2008). Cells were loaded with INDO-I and then pretreated with the 50 μM of the test compound for 60 seconds prior to stimulation of intracellular calcium mobilization with an optimized concentration of CXCL12. […] The value Δ florescence is the difference between (a) the fluorescence ratio from cells before exposure to CXCL12 at its optimized concentration and (b) the fluorescence ratio from cells following stimulation with the optimized concentration of CXCL12. Decreases in Δ florescence correspond to decreases in intracellular calcium mobilization, and therefore, decreased signaling. As CXCL12 concentration was optimized for each test compound, results are presented as normalized Δ florescence which is Δ fluorescence divided by the fluorescence ratio of optimized CXCL12-only stimulation. In some instances, the IC50 concentration (concentration at which intracellular calcium mobilization is reduced to 50% of the Δ fluorescence of the CXCL12 plus DMSO control) of the test compounds was determined. All assays were performed a minimum of four times; error bars represent the standard deviation of the mean.

CCR5 = target: T2, CCR5 (Homo sapiens, UniProt P51681); assay: RANTES-mediated chemotaxis of THP-1 cells; type: cell-based; settings: 10 μM compound, RANTES 300 ng/ml
T2 construct: endogenous in cells; host or cells: THP-1 cells
Description: (§2) Chemotaxis assays were performed with selected compounds at a concentration of 10 μM. Chemokines signaling via CXCR4 (CXCL12 at concentration of 500 ng/ml) and CCR5 (RANTES at concentration of 300 ng/ml) were utilized to assess the receptor specificity of each compound. Each pair of columns for a lane corresponds to two separate representative experiments. The negative control samples (lanes 2 and 7) correspond to the chemotaxis without CXCL12 or RANTES. The CXCL12 and RANTES lanes are positive controls corresponding to CXCL12 alone (lanes 1 and 6) or RANTES alone (lanes 4 and 9) mediated chemotaxis. The experimental samples (lanes 3, 5, 8, and 10) correspond to CXCL12- or RANTES-mediated chemotaxis when the cells are co-incubated with I-38 or I-46.

CXCR4 = target: T3, CXCR4 (Homo sapiens, UniProt P61073); assay: CXCL12-mediated chemotaxis of THP-1 cells; type: cell-based; settings: 10 μM compound, CXCL12 500 ng/ml
T3 construct: endogenous in cells; host or cells: THP-1 cells (ATCC TIB-202)
Description: Data are presented as a percentage of THP-1 cells (obtainable from ATCC accession number TIB-202) migrating toward a CXCL12 gradient of 500 ng/ml, normalized to the control, which was the CXCL12 only treatment. All assays were performed a minimum of four times with inhibitor concentration of 10 μM, except for I-61 and I-62 which used an inhibitor concentration of 1 μM. Error bars represent the standard deviation of the mean.
as §2

300.19 cells = assay: Cytotoxicity assay, propidium iodide based flow cytometry; type: cell-based; settings: 50 μM test compound
Description: Cytotoxicity Assay Method: To determine the potential for test compound cytotoxicity to influence cell intracellular calcium mobilization and chemotaxis, cell cytotoxicity was assessed using propidium iodide (PI) based flow cytometry. Propidium iodine is impermeable to intact cell membranes and thus its lack of intercalation into DNA (which increases PI fluorescence) is a positive indicator of cell viability. Cytotoxicity values are presented as percentage of cells staining positive for PI. Lower values of fluorescence indicate less cytotoxicity. All assays were performed a minimum of four times; error bars represent the standard deviation of the mean.

hCXCR4-GFP [3] = target: T1, hCXCR4-GFP; assay: Chemotaxis assay, hCXCR4-GFP expressing 300.19 cells, CXCL12; type: cell-based; settings: hCXCR4-GFP 300.19 cells, CXCL12
Description: (§3) Cells were suspended in chemotaxis buffer (RPMI 1640, 1% fetal bovine serum, 1 mM HEPES) at a concentration of 1×10^7 cells per ml. Cell chemotaxis was determined by examining the migration of the 300.19 cells in response to administration of 50 μM test compound plus an optimized concentration of CXCL12 using a chemotaxis assay that was previously described in Basu et al. (Basu et al., Critical role for polar residues in coupling leukotriene B4 binding to signal transduction in BLT1, J. Biol. Chem. (2007) Vol. 282, pp. 10005-17). 100 μL of 300.19 cells from the above cell suspension were placed in the upper chamber of a Transwell support (Corning Costar, Cambridge, Mass.) and were separated by a 5 micron filter from a bottom chamber containing 50 μM test compound plus the optimized concentration of CXCL12 in a final bottom chamber volume of 600 μl. After 3 h of incubation at 37° C. in 5% CO2, the upper chamber was removed and cells in the lower chamber were counted in a Bürker chamber. Cell counts for all samples were normalized to a CXCL12 plus DMSO control and results are reported using this normalized measure, referred to herein as the chemotaxis index. In some instances, the IC50 concentration (i.e., the concentration at which the chemotaxis index is reduced to 50% of the chemotaxis index of the CXCL12 plus DMSO control) of the test compounds was determined. All assays were performed a minimum of four times; error bars represent the standard deviation of the mean.

BLT1 [4] = target: T4, BLT1 (Homo sapiens, UniProt Q15722); assay: Chemotaxis assay, cells expressing BLT1, LTB4; type: cell-based; settings: 50 μM test compound, LTB4-induced
Description: as §3
To examine specificity of some of the compounds for CXCR4, their activity was tested against a non-family member class A G protein-coupled receptor, BLT1. […] I-38 and I-43 inhibited BLT1-mediated chemotaxis (0.23) and (0.045) to about the same extent as CXCR4-mediated chemotaxis (0.21) and (0.064), respectively.

BLT1 [5] = target: T4, BLT1; assay: Intracellular calcium mobilization assay, cells expressing BLT1, LTB4; type: cell-based; settings: 50 μM test compound, LTB4
Description: as §1
At 50 μM test compound concentrations in BLT1-expressing cells, I-44 (0.040) and I-46 (0.017) inhibited intracellular calcium mobilization.

T1 sequence (P61073 whole entry): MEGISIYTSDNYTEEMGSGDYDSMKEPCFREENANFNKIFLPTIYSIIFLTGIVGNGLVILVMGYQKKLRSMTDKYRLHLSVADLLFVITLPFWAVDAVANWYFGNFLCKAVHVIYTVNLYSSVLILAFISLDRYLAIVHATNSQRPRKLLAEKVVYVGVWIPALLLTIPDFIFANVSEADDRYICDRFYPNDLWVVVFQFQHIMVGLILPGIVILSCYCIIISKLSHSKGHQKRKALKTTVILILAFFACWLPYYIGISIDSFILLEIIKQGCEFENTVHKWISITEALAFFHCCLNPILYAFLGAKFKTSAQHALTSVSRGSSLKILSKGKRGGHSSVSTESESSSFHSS
T2 sequence (P51681 whole entry): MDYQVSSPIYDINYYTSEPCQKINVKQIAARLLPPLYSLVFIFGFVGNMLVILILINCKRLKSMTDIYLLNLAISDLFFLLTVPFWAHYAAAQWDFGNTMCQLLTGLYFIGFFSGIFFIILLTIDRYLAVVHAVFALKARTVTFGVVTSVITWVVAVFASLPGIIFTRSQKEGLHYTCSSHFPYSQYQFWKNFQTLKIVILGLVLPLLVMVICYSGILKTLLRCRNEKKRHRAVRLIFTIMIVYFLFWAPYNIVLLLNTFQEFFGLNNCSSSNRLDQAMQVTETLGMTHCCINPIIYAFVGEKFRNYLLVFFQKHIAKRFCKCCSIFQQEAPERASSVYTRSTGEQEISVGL
T3 sequence (P61073 whole entry): as the sequence (P61073 whole entry) above
T4 sequence (Q15722 whole entry, species assumed): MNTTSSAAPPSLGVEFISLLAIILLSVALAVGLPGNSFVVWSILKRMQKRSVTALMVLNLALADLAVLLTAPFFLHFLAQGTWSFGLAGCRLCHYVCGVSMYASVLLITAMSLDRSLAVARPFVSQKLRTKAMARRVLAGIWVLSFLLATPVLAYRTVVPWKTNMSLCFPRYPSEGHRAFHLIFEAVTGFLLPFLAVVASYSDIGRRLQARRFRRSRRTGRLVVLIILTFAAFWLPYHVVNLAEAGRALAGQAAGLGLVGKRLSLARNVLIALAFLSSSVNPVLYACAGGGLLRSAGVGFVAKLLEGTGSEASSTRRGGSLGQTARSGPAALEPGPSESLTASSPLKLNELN

Row | normalized Δ fluorescence (CXCR4, intracellular calcium mobilization) (hCXCR4-GFP [2]; 60 seconds pretreatment, optimized CXCL12 (AMD3100 concentration not given)) | normalized Δ fluorescence (BLT1, intracellular calcium mobilization) (BLT1 [5]) | SMILES | efficacy compared with AMD3100 (TC-1 tumor cells) | reduction of average tumor burden (TC-1 tumor cells) | TC-1 metastatic tumor incidence and burden in lungs (TC-1 tumor cells; versus PBS or Vehicle controls) | apparent toxicity (loss of body weight, signs of physiological distress) [1] | inhibition of intracellular calcium mobilization (in words) (hCXCR4-GFP [2]) | inhibition of RANTES-mediated migration of THP-1 cells (CCR5) | inhibition of CXCL12-mediated migration of THP-1 cells (CXCR4) | cytotoxicity, percentage of cells staining positive for PI (300.19 cells) [%] | IC50 (hCXCR4-GFP [3]) [µM] | chemotaxis index (BLT1-mediated) (BLT1 [4])
1 | – | – | O=C(CO/N=C/c1ccccc1)N/N=C1\C(=O)N(CN(Cc2ccccc2)Cc2ccccc2)c2ccccc21 [Compound I-38, acetic acid, 2-[[(phenylmethylene)amino]oxy]-,2-[1-[[bis(phenylmethyl)amino]methyl]-1,2-dihydro-2-oxo-3H-indol-3-ylidene]hydrazide] | more effective than AMD3100 | more than 60% | reduced mice TC-1 metastatic tumor incidence and burden in lungs | did not induce any apparent toxicity | does not significantly inhibit intracellular calcium mobilization; also recorded: little reduction of intracellular calcium mobilization | specifically inhibit CXCR4 mediated migration | specifically inhibit CXCR4 mediated migration | 7.93 | 5 | 0.23
2 | 0.067 | 0.017 | O=C(Nc1ccc2ccc3ccc(NC(=O)c4ccccc4)nc3c2n1)c1ccccc1 [Compound I-46, N,N′-1,10-phenanthroline-2,9-diylbis-benzamide] | – | – | – | – | – | inhibit migration to both chemokines | inhibit migration to both chemokines | – | – | –
